Experiments:
[1] = Rhenium molecular probe-lipid overlay (dot blot); assay type: binding; set-up: key to interaction with PE (dot blot): ✓ indicates a positive interaction; x indicates no interaction
Procedure: (§1) The experimental protocol probe-lipid overlay was as follows: 50 μM of each lipids was loaded on to PVDF membranes (Perkin Elmer, USA), which were then incubated with molecular probes. PhenCyano and PhenPyridyl were assessed against eleven lipids including; sphingomyelin (Cat # S0756, Sigma Aldrich, USA), sphingosine (Cat # S7049; Sigma Aldrich, USA), L-phosphatidylethanolamine (Cat # P7943, Sigma Aldrich, USA), monosialodanglioside (GM1; Cat # G7641, Sigma Aldrich, USA), oleoly-L-?-lysophosphatidic acid (Cat # L7260, Sigma Aldrich, USA), palmitic acid (Cat # P5917, Sigma Aldrich, USA), sphingomyelin (Cat # S0756, Sigma Aldrich, USA), sphingosine (Cat # S7049; Sigma Aldrich, USA), L-?-phosphatidylethanolamine (Cat # P7943, Sigma Aldrich, USA), monosialodanglioside (GM1; Cat # G7641, Sigma Aldrich, USA), progesterone (Cat #102722, MP Biomedical, USA), ceramide (Cat # C2137; Sigma Aldrich, USA), triacylglycerol mix C2-C10 (Cat #17810, Sigma Aldrich, USA) and cholesteryl acetate (Cat #151114; Sigma Aldrich, USA).
All other molecular probes were assessed against a panel of six lipids including; sphingomyelin (Cat # S0756, Sigma Aldrich, USA), sphingosine (Cat # S7049; Sigma Aldrich, USA), L-?-phosphatidylethanolamine (Cat # P7943, Sigma Aldrich, USA), monosialodanglioside (GM1; Cat # G7641, Sigma Aldrich, USA), sphingomyelin (Cat # S0756, Sigma Aldrich, USA), sphingosine (Cat # S7049; Sigma Aldrich, USA), L-?-phosphatidylethanolamine (Cat # P7943, Sigma Aldrich, USA), monosialodanglioside (GM1; Cat # G7641, Sigma Aldrich, USA) and triacylglycerol mix C2-C10 (Cat #17810, Sigma Aldrich, USA).
(§2) Lipids were dissolved in ethanol, methanol or isopropanol for loading depending on solubility. Following lipid loading, membranes were left to dry for 20-30 minutes, then they were washed for 10 minutes in cold 10% ethanol, before they were incubated with 10 μM solution of each Rhenium molecular probe in cold 10% ethanol for one hour. Membranes were than washed four times for 10 minutes in cold 10% ethanol prior to imaging. Imaging was performed on an Image Quant Las 4000 (GE, Sweden) luminescent image analyser, with the Rhenium molecular probe being detected by excitation at 460 nm using an epi-blue light source, and detected using an 575 nm ethidium bromide filter.

[2] = tested on: Drosophila fat body cells; assay: Live tissue staining with rhenium molecular probes (Examples 10, 13); assay type: cell-based
Procedure: (§3) Probes were dissolved in DMSO to obtain a stock solution with a concentration of 10 mM. Stock solutions were stored at room temperature in a dark place. Working solutions were prepared only at the time of use as the probe has reduced solubility in aqueous solutions. A Working solution was a dilution 1/1000 to 1/500 of the stock in DMSO to PBS or cell medium, and as such the percentage of DMSO used in actual cell experiments was less than 1%.
(§4) For tissues, the tissues were isolated in PBS (or other physiological media) and mounted on a coverslip. For cells, these were grown as per normal practice on coverslips.
(§5) The media was removed media and replaced with 10-20 μM solution of molecular probes in PBS (or appropriate physiological media/cell media) at a dilution of stock solution from 1/1000-1/500, for 15-30 minutes at physiologically appropriate temperature (37° C. for cell culture or 25° C. for insect larvae). […] If foetal calf serum is necessary for cell health, an increased incubation time may be necessary to obtain adequate staining.
The samples were washed for one minute in PBS. If co-staining was performed, the samples were washed in PBS for 30 seconds, before incubating with counterstain.
Tissues were mounted in optical coupling gel, such as carbomer-940 (Snowdrift farm, Tucson, USA) based gel to prevent dehydration prior to imaging and maintain tissue integrate (Rothstein, E. C., Nauman, M., Chesnick S., Balaban R. S., 2006, Multi-photon excitation microscopy in intact animals Journal of Microscopy 222, 58, 64). For cells, the coverslip was mounted in PBS for immediate imaging.
Samples were imaged immediately following staining.
Rhenium molecular probes were? excited at 800-830 nm using a two-photon pulse laser or 405 steady state laser and detection in the range of 490-670 nm, with an emission maxima at around 570.
Micrographs of 3T3 L1, 453 cells and CHOK1 cells and Drosophila fat body tissue stained with rhenium molecular probes, PhenCyan top, PhenPyridyl bottom are shown in FIG. 10. […] Left: confocal images; Right: fluorescence microscopy images. […]

3T3 L1 cells = assay: Live cell staining with rhenium molecular probes; assay type: cell-based; details: live samples, 10-20 μM probe
Procedure: as §3, §4, §5
The samples were washed for one minute in PBS. […]
Micrographs of 3T3 L1, 453 cells and CHOK1 cells and Drosophila fat body tissue stained with rhenium molecular probes, PhenCyan top, PhenPyridyl bottom are shown in FIG. 10. […] Left: confocal images; Right: fluorescence microscopy images.

[3] = Rhenium molecular probe-lipid overlay (dot blot); assay type: binding; details: FIG. 7
Procedure: as §1, §2

Structure (SMILES): N#Cc1ccc(-c2nn[n]([Re](=[C]=O)(=[C]=O)=[C]=O)n2)cc1.c1cnc2c(c1)ccc1cccnc12 [PhenCyano, Triscarbonyl phenanthroline (4-cyanophenyltetrazolato)Rhenium(I)]
- interaction with PE (dot blot) ([1]; 10 μM probe, 50 μM lipid on PVDF membrane): ✓
- affinity towards phosphatidylethanolamine (PE), in words ([1]; FIG. 7 / FIG. 8): some affinity
- emission spectral profile in the acidic compartment versus lipid droplet ([2]; +2 h PF, following autophagic inducement): blue shift and an increase in emission intensity
- staining pattern in Drosophila fat body cells ([2]; live samples, 10-20 μM probe): distribution consistent with lipid droplet staining
- staining pattern in 3T3 L1 cells (3T3 L1 cells): distribution consistent with lipid droplet staining
- interaction with cholesterol ester (cholesteryl acetate), in words [3]: no interaction detected
